Measured values: article PMC5632533, “Mechanisms of action and in vivo antibacterial efficacy assessment of five novel hybrid peptides derived from Indolicidin and Ranalexin against Streptococcus pneumoniae” (PeerJ, 2017)

Experiments:
ICR (CD-1) mice = assay: In vivo toxicity in mice (SC, IN, IP routes); parameters: Aspartate aminotransferase, AST / Alanine transaminase, ALT / Alkaline phosphatase, ALP / Creatinine / Urea / Total bilirubin: unit not given here; settings: for Eosinophil / Erythrocytes, RBC / Granulocytes / Hematocrit, HCT / Hemoglobin Hgb / Lymphocytes / Mean corpuscular haemoglobin concentration, MCHC / Mean corpuscular haemoglobin, MCH / Monocytes / White blood cells, WBC / platelet Counts, PLT / Mean corpuscular volume, MCV / Alanine transaminase, ALT / Alkaline phosphatase, ALP / Aspartate aminotransferase, AST / Creatinine / Total bilirubin / Urea: 3 doses (1hr, 12hr, 24hr), RN7-IN9, RN7-IN6 10 mg/kg, day 7, mean±SD, 4 mice; for Alanine transaminase, ALT / Alkaline phosphatase, ALP / Aspartate aminotransferase, AST / Creatinine / Total bilirubin / Urea: serum
Description: In this study, 4-week old male, pathogen free ICR (CD-1) mice were purchased from InVivos (Lim Chu Kang, Singapore) and used to assess the in vivo toxicity and antibacterial efficacy of the novel peptides, as these animals are by far the most commonly used model for the study of pneumococcal disease ([Chiavolini, Pozzi & Ricci, 2008]). The mice were kept in ventilated polycarbonate cages (12 h light/dark cycle, 20 ± 2 °C and 55% relative humidity). All mice were familiarized for seven days before any experimental procedure and were given unlimited pellets and water ad libitum. All animal experimentations were conducted according to the guidelines approved by Faculty of Medicine Institutional Animal Care and Use Committee (FOM IACUC), University of Malaya (ethics Reference no. : 2013-07-15/MMBTR/SDS).
In order to evaluate the possible toxic effects correlated to peptides administered in mice, four hybrid peptides RN7-IN10, RN7-IN9, RN7-IN8 and RN7-IN6 were chosen for in vivo toxicity assessment, due to their promising in vitro antibacterial activity ([Jindal et al., 2015]). Mice were separated into four groups (each with four mice) and were injected with respective peptides at 1 h, 12 h, and 24 h (three-dose regimen) via IP, SC, and IN administration routes. The hybrid peptides were first administered at high doses (100 mg/kg for IP route, 100 mg/kg for SC routes and 20 mg/kg for IN route). Any abnormal behavior was recorded and survival of mice was noted as well. In case adverse effects such as high physical stress, severe lethargy, physical inactiveness, and/or death were detected, lower graded doses were given. All the administered mice were monitored for seven days or until death occurred. At day seven post administration, all animals were sacrificed and blood and organs were collected. Untreated mice were used as a control group.
Mice used to evaluate the in vivo toxicity and antibacterial activity of the hybrid peptides using the subcutaneous (SC) and intranasal (IN) administration routes, were anesthetized using a combination of a standard dose of xylazine (ilium xylazil-20, 10 mg/kg) and ketamine (Narketan®-10, 100 mg/kg) through intraperitoneal (IP) injection. After seven days of treatment, the in vivo toxicity and antibacterial efficacy experiments were ended and the surviving mice were anesthetized. Blood samples for Hematological and biochemical analysis were collected via cardiac puncture using a 25G syringe (BD bioscience, San Jose, CA, USA). Whole blood for heamatological analysis was collected in 500 µl dipotassium EDTA microtainer tubes (BD Bioscience, USA). About 500 µl of blood collected an eppedorff tube and centrifuged at 8000 rpm for 5 min and then the serum was transferred into a new 1.5 ml tube for biochemistry analysis. The mice were then euthanized by cervical dislocation, dissected and the following organs were collected for histopathology evaluation: lung, kidney, brain, liver and spleen.
For whole blood analysis, the parameters were number of red cells (RBC), number of white cells (WBC), lymphocytes, monocytes, eosinophil, granulocytes, haemoglobin (Hgb), mean corpuscular volume (MCV), hematocrit (HCT), platelet Counts (PLT), Mean corpuscular haemoglobin (MCH) and corpuscular haemoglobin concentration (MCHC). For biochemistry analysis, the parameters were alanine transaminase (ALT), creatinine, alkaline phosphatase (ALP), aspartate aminotransferase (AST), total bilirubin and urea.
The following organs were collected from all the dissected mice: lung, kidney, brain, spleen, and liver. All tissues were fixed in 10% (v/v) buffered formalin and processed for paraffin embedding. Hematoxylin–eosin (HE) was used to stain the histological sections at the histopathology laboratory, Veterinary Laboratory Service Unit, University Putra Malaysia (UPM).

S. pneumoniae = assay: ATP efflux assay; format: cell-based, Streptococcus pneumoniae; settings: 1 × 10^7 CFU/ml; peptides 125 µg/ml (RN7-IN7 500 µg/ml); luciferin/luciferase, ATP standard curve; mean ± SD, three independent experiments
Description: The amount of ATP released from pneumococcal cells incubated with hybrid peptides was measured as described previously, with a slight modification ([Tanida et al., 2006]). The ATP determination kit (Molecular Probes, Eugene, OR, USA) was used to measure the amount of ATP released based on the luciferin/luciferase method according to the manufacturer’s instructions. Briefly, S. pneumoniae were grown overnight on Columbia agar with 5% sheep blood. Bacterial suspensions were spectrophotometrically adjusted to (1 × 10^7 CFU/ml) and incubated with hybrid peptides RN7-IN10, RN7-IN9, RN7-IN8 and RN7-IN6 at 125 µg/ml and with RN7-IN7 at 500 µg/ml. The amount of ATP released form the pneumococcal cells were measured at three time points 1, 2 and 3 h. The samples were then centrifuged at 5,000 rpm for 5 min, and ATP efflux was subsequently estimated using an ATP standard curve. Values were obtained from three independent experiments. Ceftriaxone and erythromycin were used as positive controls.

[1] = IN, head doses: RN7-IN10, RN7-IN8 20 mg/kg
[2] = SC, head doses: RN7-IN10, RN7-IN8 20 mg/kg

## FLGGLIKKWPWWPWRR-NH2 [RN7-IN9, hybrid peptide of ranalexin (residues 1-7) and indolicidin (residues 5-13)]
ICR (CD-1) mice; [1]
  Eosinophil: 3.2±1.2%
  Erythrocytes, RBC: 9.36±0.9 10^6/mm^3
  Granulocytes: 56.2±10.81%
  Hematocrit, HCT: 46.82±4.23%
  Hemoglobin Hgb: 14.9 ± 1.32 g/dL
  Lymphocytes: 41.27±10.56%
  Mean corpuscular haemoglobin concentration, MCHC: 31.85 ± 0.17 g/dL
  Mean corpuscular haemoglobin, MCH: 15.95 ± 0.33 pg
  Monocytes: 2.52±0.27%
  White blood cells, WBC: 5.2±2.35 10^3/mm^3
  platelet Counts, PLT: 656.75±76.9 10^3/mm^3
  Alanine transaminase, ALT: 41.22±15.75
  Alkaline phosphatase, ALP: 127.75±6.07
  Aspartate aminotransferase, AST: 141.2±23.08
  Creatinine: 37.66±1.26
  Total bilirubin: 2.01±0.27
  Urea: 9.6±1.02
ICR (CD-1) mice; IP, RN7-IN10, RN7-IN8 20 mg/kg
  Eosinophil: 3.95±2.56%
  Erythrocytes, RBC: 8.06±1.04 10^6/mm^3
  Granulocytes: 53.02±4.07%
  Hematocrit, HCT: 41.42±5.25%
  Hemoglobin Hgb: 13.9 ± 1.67 g/dL
  Mean corpuscular haemoglobin concentration, MCHC: 33.63 ± 0.34 g/dL
  Mean corpuscular haemoglobin, MCH: 17.25 ± 0.78 pg
  Mean corpuscular volume, MCV: 51.5±2.64 µm^3
  Monocytes: 2.47±0.25%
  White blood cells, WBC: 3.7±1.54 10^3/mm^3
  platelet Counts, PLT: 674±118.72 10^3/mm^3
  Alanine transaminase, ALT: 51.54±5.83
  Aspartate aminotransferase, AST: 172.33±26.35
  Creatinine: 37.3±3.51
  Total bilirubin: 1.9±0.02
  Urea: 10.56±5.2
ICR (CD-1) mice; IP, doses at 1 h, 12 h, 24 h, no death up to seven days
  maximum IP dose at which no signs of stress or abnormal behavior were evident (non-toxic dose): 10 mg/kg
ICR (CD-1) mice; [2]
  Eosinophil: 2.77±0.54%
  Erythrocytes, RBC: 9.22±0.98 10^6/mm^3
  Granulocytes: 55.55±4.52%
  Hematocrit, HCT: 46.15±5.19%
  Hemoglobin Hgb: 15.75 ± 1.4 g/dL
  Lymphocytes: 46.47±5.48%
  Mean corpuscular haemoglobin concentration, MCHC: 34.2 ± 1.37 g/dL
  Mean corpuscular haemoglobin, MCH: 17.1 ± 0.53 pg
  Mean corpuscular volume, MCV: 51±1.82 µm^3
  Monocytes: 1.95±0.1%
  White blood cells, WBC: 4.32±0.55 10^3/mm^3
  platelet Counts, PLT: 449.75±100.23 10^3/mm^3
  Alanine transaminase, ALT: 43.17±13.81
  Alkaline phosphatase, ALP: 131.25±19.7
  Aspartate aminotransferase, AST: 188.33±11.22
  Creatinine: 35±1.27
  Total bilirubin: 2.2±0.13
  Urea: 8.84±1.04
S. pneumoniae
  ATP released from pneumococcal cells after 3 h: 22.9 ± 3.22 pM
